# According to US11324216B2, “Methods for controlling root parasitic weeds: inhibitors of seed germination in Striga” (King Abdullah University of Science and Technology, priority 2017, dated 2022):
# Like-named read-outs stand apart in the source and are kept apart here.
# What was measured:
# ShHTL7 [1] = target: T1, ShHTL7 (Striga hermonthica, UniProt A0A0M3PNA2); test: Yoshimulactone Green (YLG) hydrolysis analysis; format: biochemical; settings: for IC50: pre-incubation 30 min, 1 μM YLG 60 min
# T1 sequence (A0A0M3PNA2 entry or part of it): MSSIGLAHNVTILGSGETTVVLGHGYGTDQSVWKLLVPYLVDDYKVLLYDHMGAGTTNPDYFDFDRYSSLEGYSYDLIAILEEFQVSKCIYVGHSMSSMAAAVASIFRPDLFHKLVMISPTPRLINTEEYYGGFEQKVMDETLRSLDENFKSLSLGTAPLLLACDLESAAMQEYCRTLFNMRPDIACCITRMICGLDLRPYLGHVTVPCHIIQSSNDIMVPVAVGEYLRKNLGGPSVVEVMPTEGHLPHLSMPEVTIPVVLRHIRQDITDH
# Description: (§1) For measuring the hydrolysis of YLG in vitro, 10 μg of purified ShHTL7, AtD14 and OsD14 in a reaction buffer (1×PBS) containing 0.1% dimethyl sulfoxide (DMSO) in a total volume of 100 μL in 96-well black plate (Greiner) were used. To measure the fluorescent intensity, SpectraMax i3 (Molecular Devices) with an excitation wavelength of 480 nm and a detection wavelength of 520 nm were used. Purified proteins were mixed with Triton X-100, using serial dilutions with concentrations ranging from 5 μM to 4.87 nM. Proteins were pre-incubated with Tritone X-100 for 30 min, followed by incubation with 1 μM YLG (Tokyo Chemical Industry Co. Ltd., product number E1238) for 60 min. Fluorescence values measured in the void control were subtracted from those obtained in the presence of protein. Curves and IC50 values were plotted using Graph pad (PRISM 6) four-parameter logistic curve.
# ShHTL7 [2] = target: T1, ShHTL7; settings: A. thaliana line expressing ShHTL7; cited from earlier work
# ShHTL7 [3] = target: T1, ShHTL7; settings: read-out: Kd of ShHTL7 and GR24
# Striga hermonthica seeds = test: Striga hermonthica germination assay (GR24-induced); format: in vivo
# Description: Striga hermonthica germination bioassays were carried out using Striga seeds collected from a Sorghum bicolor field in Sudan. About 50-100 dry Striga washed and sterilized seeds were distributed on a 9-mm diameter glass fiber filter paper discs (Sartorius, Goettingen Germany). Discs were then placed in 9-cm diameter petri-dishes (12 discs per petri-dish) on filter paper (Whatman, Maidstone, UK) moistened with 3 mL sterilized water. The petri-dishes were sealed with parafilm, wrapped with aluminum foil and incubated in growth chambers at 30° C. for 10 days for preconditioning. On the 11th day, discs were air dried in laminar flow cabinet and transferred to 9-cm petri-dishes (four discs in each plate), which contained 9-mm diameter glass fiber filter paper rings, moistened with 900 μL sterile MilliQ water. The pre-conditioned Striga seeds were treated with Triton X-100 at concentrations of 15.4 μM (0.001%) and 1.54 μM (0.0001%) along with GR24 at 1 nM, 0.5 nM, 0.25 nM and 0.125 nM respectively. Triton X-100/GR24 mixtures were applied (50 μl per disc) in four replicates. Corresponding volumes of GR24 and sterile MilliQ water were included as positive and negative control, respectively. The petri-dishes were sealed with parafilm, enfolded with aluminum foil and incubated for 48 h at 30° C. The germinated (seeds with radicle emerging through the seed coat) and non-germinated Striga seeds were recorded under a binocular and germination percentage was calculated.
# AtD14 [4] = target: T2, AtD14 (Arabidopsis thaliana, UniProt Q9SQR3); test: Yoshimulactone Green (YLG) hydrolysis analysis; format: biochemical, A. thaliana
# T2 construct: made in house
# T2 sequence (Q9SQR3 1-267): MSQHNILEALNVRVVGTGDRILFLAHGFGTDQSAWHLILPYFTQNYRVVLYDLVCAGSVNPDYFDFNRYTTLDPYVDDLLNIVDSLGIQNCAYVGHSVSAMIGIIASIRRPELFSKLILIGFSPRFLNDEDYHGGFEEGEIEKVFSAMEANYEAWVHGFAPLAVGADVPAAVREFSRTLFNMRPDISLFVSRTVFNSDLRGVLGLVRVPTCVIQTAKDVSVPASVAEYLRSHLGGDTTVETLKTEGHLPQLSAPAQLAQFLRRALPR
# Description: as §1, with “Purified proteins were mixed with Triton X-100, using serial dilutions with concentrations ranging from 5 μM to 4.87 nM.” left out
# ShHTL7 [5] = target: T1, ShHTL7; test: Intrinsic Triton X-100 fluorescence binding assay
# Description: cDNA fragments, encoding the S. hermonthica ShHTL7 or the mutated version S95C (in which the serine in the active triad was changed to cysteine) flanked with BamHI and XhoI restriction sites, were cloned into the pGEX-6P1 (GE Healthcare) expression vector that enables the expression of GST fusion protein, using the corresponding restriction sites, as shown in Table 1 below. The plasmid obtained was then transformed into BL21 (DE3) E. coli cells. Cells were grown in LB medium at 37° C., and protein expression was induced at OD 0.6 at λ=600 nm by adding 150 μM isopropyl β-D-1-thiogalactopyranoside (IPTG). After induction, cultures were grown at 16° C. overnight under shaking. […]
# (§2) Purified proteins (at concentrations of 1 nm to 5 μM) were incubated with 1.54 μM of Triton X-100 for 2 h. Since Triton X-100 has an excitation and emission wavelength of 275 nm and 302 nm, fluorescence was measured at the corresponding wavelengths using SpectraMax i3 (Molecular Devices). […] Data were normalized to the background fluorescence from the protein and values obtained in absence of proteins were subtracted, to determine changes in Triton X-100 fluorescence intensity. Kd values were determined by plotting changes in Triton X-100 fluorescence intensity against the concentration of the protein, using the single binding site model implemented in Graph pad (PRISM 6).
# [6] = system: rice seeds cv. Nipponbare; format: in vivo; settings: Striga germination vs rice growth
# Description: The rice seeds cv. Nipponbare were surface-sterilized using 50 ml (2.5%) sodium hypochlorite with 0.4% of Tween-20 for 15 min. After six subsequent washing steps with sterilized water, the rice seeds were kept in water at 30° C. for overnight imbibition. About 2 ml of dilutions of Triton X-100 at 15.4 μM, 1.54 μM in sterile MilliQ water (control) was added in 24-well plates with six replications. One sterilized rice seed was put in each well and allowed to germinate for 48 h at 30° C. The germinated (radicle emergence) and non-germinated seeds were recorded and germination percentage was calculated. Then same seeds were allowed to grow under light in growth cabinet for another one week. The length of one week old seedlings was measured with a roller and averaged.
# ShHTL7 L143Y mutant = test: Yoshimulactone Green (YLG) hydrolysis analysis; format: biochemical, Striga hermonthica
# OsD14 [7] = target: T3, OsD14 (Oryza sativa subsp. japonica, UniProt Q10QA5); test: Intrinsic Triton X-100 fluorescence binding assay; set-up: species or system rice; settings: OsD14 concentrations up to 10 μM
# T3 construct: made in house
# T3 sequence (Q10QA5 1-318): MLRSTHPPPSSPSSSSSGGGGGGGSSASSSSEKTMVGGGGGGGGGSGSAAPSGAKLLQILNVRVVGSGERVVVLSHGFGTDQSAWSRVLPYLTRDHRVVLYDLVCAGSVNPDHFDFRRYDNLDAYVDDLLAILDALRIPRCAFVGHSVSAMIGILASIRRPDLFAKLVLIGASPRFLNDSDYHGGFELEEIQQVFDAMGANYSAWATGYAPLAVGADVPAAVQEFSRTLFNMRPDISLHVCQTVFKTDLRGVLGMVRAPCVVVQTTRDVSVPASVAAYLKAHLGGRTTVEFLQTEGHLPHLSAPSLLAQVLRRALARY
# Description: as §2, with “Since” for “Purified proteins (at concentrations of 1 nm to 5 μM) were incubated with 1.54 μM of Triton X-100 for 2 h. Since”
# AtD14 [8] = target: T2, AtD14; test: Intrinsic Triton X-100 fluorescence binding assay; set-up: species or system A. thaliana; settings: AtD14 concentrations up to 10 μM
# Description: as §2, with “Since” for “Purified proteins (at concentrations of 1 nm to 5 μM) were incubated with 1.54 μM of Triton X-100 for 2 h. Since”
# ShHTL7 [9] = target: T1, ShHTL7; test: Differential static light scattering (DSLS), aggregation temperature; format: binding; settings: following pre-incubation; varying Triton concentrations
# Description: The specific aggregation temperature, Tagg, was determined using DSLS on the Stargazer system (Harbinger Biotechnology and Engineering Corporation, Markham, Canada). For this purpose, purified protein (1 mg/mL) was overlaid with mineral oil in a clear bottom 384-well black plate (Corning), and temperature was increased from 20 to 95° C. with a ratio of 1° C./min. A CCD camera was used to detect light scattering every 0.5° C. in the presence or absence of varying concentrations of Triton X-100, unraveling X-100 concentration-dependent changes in aggregation temperature (ShHTL7 ΔTagg). Data were normalized, and ΔTagg was plotted against the Triton X-100 concentration. Resulting data were plotted to determine the change in Tagg of ShHTL7 upon binding to Triton X-100 using Graph pad (PRISM 6).
# OsD14 [10] = target: T3, OsD14; test: Yoshimulactone Green (YLG) hydrolysis analysis; format: biochemical, rice
# Description: as §1, with “Purified proteins were mixed with Triton X-100, using serial dilutions with concentrations ranging from 5 μM to 4.87 nM.” left out
compound,measurement,setting,value
CC(C)(C)CC(C)(C)c1ccc(OCCOCCO)cc1 [4-ter-octylphenol diethoxylate],IC50,ShHTL7 [1],7500 ± 2100 nM
CC1=C[C@H](O/C=C2/C(=O)O[C@@H]3c4ccccc4C[C@H]23)OC1=O [GR24],GR24 concentration triggering germination,ShHTL7 [2],picomolar concentrations
same,Kd,ShHTL7 [3],440 nM
"CC(C)(C)CC(C)(C)c1ccc(OCC(=O)O)cc1 [2-[4-(2,4,4-trimethylpentan-2-yl)phenoxy]acetic acid]",Inhibitory effect on ShHTL7 catalyzed hydrolysis of YLG,ShHTL7 [1]; in words,clear inhibitory effect
same,IC50,ShHTL7 [1],1500 ± 410 nM
CC(C)(C)CC(C)(C)c1ccc(OCCO)cc1 [4-ter-octylphenol Monoethoxylate],IC50,ShHTL7 [1],9200 ± 3200 nM
polyethylene glycol tert-octylphenyl ether [Triton X-100],Inhibition of GR24-induced S. hermonthica germination,Striga hermonthica seeds; 1.54 μM Triton X-100,significantly inhibiting
same,Inhibition of GR24-induced S. hermonthica germination,Striga hermonthica seeds; 15.4 μM Triton X-100,significantly inhibiting
same,Inhibition of S. hermonthica germination,Striga hermonthica seeds; maximum inhibition,up to 90%
same,Inhibition of YLG hydrolysis by AtD14,AtD14 [4]; 10 μM Triton,around 10%
same,Effect on YLG hydrolysis by AtD14,AtD14 [4]; up to 0.5 μM Triton,did not affect
same,Affinity of Triton for ShHTL7 relative to GR24,ShHTL7 [5]; Kd 31 nM vs Kd 440 nM,about ten times higher affinity
same,Kd,"ShHTL7 [5]; following pre-incubation 2 h or more, intrinsic Triton fluorescence, read-out: Kd between Triton and ShHTL7",31 nM
same,Triton concentrations inhibiting S. hermonthica germination relative to concentrations that affect rice growth,[6],five orders of magnitude lower
same,Inhibition of YLG hydrolysis by ShHTL7 L143Y mutant,ShHTL7 L143Y mutant,failed to inhibit
same,Change in Triton fluorescence with OsD14,OsD14 [7],No change in Triton fluorescence
same,Change in Triton fluorescence with AtD14,AtD14 [8],No change in Triton fluorescence
same,IC50,ShHTL7 [1],470 ± 110 nM
same,Aggregation temperature (Tagg) of ShHTL7,ShHTL7 [9],aggregation temperature increases in a Triton concentration-dependent manner
same,Inhibition of YLG hydrolysis by OsD14,OsD14 [10]; 10 μM Triton,around 10%
same,Effect on YLG hydrolysis by OsD14,OsD14 [10]; up to 0.5 μM Triton,did not affect
